Test results: the kinase profiling compilation of Christmann-Franck et al. (2016)

Columns and labels:
Assay in all cases: KINOMEscan competition binding
Details in all cases: compound 10.0 µM
PKMYT1 (human) = PKMYT1 (human) (UniProt Q99640)
VRK2 (human) = VRK2 (human) (UniProt Q86Y07)
GAK (human) = GAK (human) (UniProt O14976)
CDK8 (human) = CDK8 (human) (UniProt P49336)
TEK (human) = TEK (human) (UniProt Q02763)
PIK3CB (human) = PIK3CB (human) (UniProt P42338)
[1] = target: TYK2 JH1 catalytic (human) (UniProt P29597)
CAMK1D (human) = CAMK1D (human) (UniProt Q8IU85)
CRK2 (P.falciparum) = CRK2 (P.falciparum) (UniProt P61075)
TAOK3 (human) = TAOK3 (human) (UniProt Q9H2K8)
PRPF4B (human) = PRPF4B (human) (UniProt Q13523)
PAK4 (human) = PAK4 (human) (UniProt O96013)
RPS6KA6 KD1 (human) = RPS6KA6 KD1 (human) (UniProt Q9UK32)
GRK4 (human) = GRK4 (human) (UniProt P32298)
EPHA7 (human) = EPHA7 (human) (UniProt Q15375)
CDK13 (human) = CDK13 (human) (UniProt Q14004)
PIM3 (human) = PIM3 (human) (UniProt Q86V86)
PIP5K1A (human) = PIP5K1A (human) (UniProt Q99755)
TGFBR1 (human) = TGFBR1 (human) (UniProt P36897)
TYRO3 (human) = TYRO3 (human) (UniProt Q06418)
TSSK1B (human) = TSSK1B (human) (UniProt Q9BXA7)
PRKCE (human) = PRKCE (human) (UniProt Q02156)
STK35 (human) = STK35 (human) (UniProt Q8TDR2)
FGFR1 (human) = FGFR1 (human) (UniProt P11362)
CDK18 (human) = CDK18 (human) (UniProt Q07002)
MELK (human) = MELK (human) (UniProt Q14680)
PIK3C2G (human) = PIK3C2G (human) (UniProt O75747)
NTRK2 (human) = NTRK2 (human) (UniProt Q16620)
CSNK1A1L (human) = CSNK1A1L (human) (UniProt Q8N752)
SBK1 (human) = SBK1 (human) (UniProt Q52WX2)
CAMK2A (human) = CAMK2A (human) (UniProt Q9UQM7)
DMPK (human) = DMPK (human) (UniProt Q09013)
NTRK1 (human) = NTRK1 (human) (UniProt P04629)
MAP3K9 (human) = MAP3K9 (human) (UniProt P80192)
PKN1 (human) = PKN1 (human) (UniProt Q16512)
STK38 (human) = STK38 (human) (UniProt Q15208)
ACVRL1 (human) = ACVRL1 (human) (UniProt P37023)
LIMK1 (human) = LIMK1 (human) (UniProt P53667)
MAP4K3 (human) = MAP4K3 (human) (UniProt Q8IVH8)
RIPK1 (human) = RIPK1 (human) (UniProt Q13546)

Sequence of PAK4 (human) (O96013 whole entry, looked up): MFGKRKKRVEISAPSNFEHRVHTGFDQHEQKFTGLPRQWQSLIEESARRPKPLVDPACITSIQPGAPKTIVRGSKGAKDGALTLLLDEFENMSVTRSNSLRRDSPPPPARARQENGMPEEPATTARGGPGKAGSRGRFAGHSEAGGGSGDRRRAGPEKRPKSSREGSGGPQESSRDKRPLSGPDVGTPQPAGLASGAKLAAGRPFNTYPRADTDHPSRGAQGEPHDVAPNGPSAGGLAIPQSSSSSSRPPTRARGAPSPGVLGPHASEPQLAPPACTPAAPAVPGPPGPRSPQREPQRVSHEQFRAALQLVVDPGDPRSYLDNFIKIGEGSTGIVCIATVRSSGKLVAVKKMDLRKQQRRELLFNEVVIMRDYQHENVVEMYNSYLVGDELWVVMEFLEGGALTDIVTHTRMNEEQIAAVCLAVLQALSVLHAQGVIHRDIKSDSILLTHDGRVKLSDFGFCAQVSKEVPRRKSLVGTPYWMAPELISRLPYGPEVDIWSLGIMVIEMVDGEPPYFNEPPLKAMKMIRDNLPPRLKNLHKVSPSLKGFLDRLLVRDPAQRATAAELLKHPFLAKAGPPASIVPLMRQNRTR
Sequence of STK35 (human) (Q8TDR2 whole entry, looked up): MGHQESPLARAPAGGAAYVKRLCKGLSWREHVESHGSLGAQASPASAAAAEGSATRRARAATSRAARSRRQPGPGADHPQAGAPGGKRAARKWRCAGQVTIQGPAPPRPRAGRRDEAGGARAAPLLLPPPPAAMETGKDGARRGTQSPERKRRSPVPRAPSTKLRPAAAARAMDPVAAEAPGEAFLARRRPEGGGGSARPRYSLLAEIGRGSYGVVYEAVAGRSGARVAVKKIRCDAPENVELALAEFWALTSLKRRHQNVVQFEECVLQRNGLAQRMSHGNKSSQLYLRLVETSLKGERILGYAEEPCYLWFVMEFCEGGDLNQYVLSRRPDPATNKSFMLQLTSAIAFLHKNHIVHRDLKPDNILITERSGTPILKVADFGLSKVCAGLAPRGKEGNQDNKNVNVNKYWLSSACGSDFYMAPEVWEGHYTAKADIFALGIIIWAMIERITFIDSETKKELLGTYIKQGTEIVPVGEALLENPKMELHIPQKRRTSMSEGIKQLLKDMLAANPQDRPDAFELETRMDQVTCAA
Sequence of GRK4 (human) (P32298 whole entry, looked up): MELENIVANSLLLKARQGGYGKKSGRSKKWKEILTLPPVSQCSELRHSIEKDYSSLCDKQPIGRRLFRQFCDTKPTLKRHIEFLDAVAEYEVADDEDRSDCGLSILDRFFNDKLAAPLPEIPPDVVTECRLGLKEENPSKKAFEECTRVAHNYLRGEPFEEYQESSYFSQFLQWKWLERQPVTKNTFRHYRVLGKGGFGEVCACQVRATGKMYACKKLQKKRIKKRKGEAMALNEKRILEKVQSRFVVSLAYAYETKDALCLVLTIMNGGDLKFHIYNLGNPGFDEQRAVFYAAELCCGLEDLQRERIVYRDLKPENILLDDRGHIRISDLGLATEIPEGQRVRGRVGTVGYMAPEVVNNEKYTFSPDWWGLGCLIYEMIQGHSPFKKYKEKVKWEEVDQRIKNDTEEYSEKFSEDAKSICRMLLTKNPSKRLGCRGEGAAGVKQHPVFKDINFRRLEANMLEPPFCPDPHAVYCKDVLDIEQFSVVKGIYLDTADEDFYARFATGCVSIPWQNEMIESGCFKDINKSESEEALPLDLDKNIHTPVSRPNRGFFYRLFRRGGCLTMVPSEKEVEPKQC
Sequence of PIK3C2G (human) (O75747 whole entry, looked up): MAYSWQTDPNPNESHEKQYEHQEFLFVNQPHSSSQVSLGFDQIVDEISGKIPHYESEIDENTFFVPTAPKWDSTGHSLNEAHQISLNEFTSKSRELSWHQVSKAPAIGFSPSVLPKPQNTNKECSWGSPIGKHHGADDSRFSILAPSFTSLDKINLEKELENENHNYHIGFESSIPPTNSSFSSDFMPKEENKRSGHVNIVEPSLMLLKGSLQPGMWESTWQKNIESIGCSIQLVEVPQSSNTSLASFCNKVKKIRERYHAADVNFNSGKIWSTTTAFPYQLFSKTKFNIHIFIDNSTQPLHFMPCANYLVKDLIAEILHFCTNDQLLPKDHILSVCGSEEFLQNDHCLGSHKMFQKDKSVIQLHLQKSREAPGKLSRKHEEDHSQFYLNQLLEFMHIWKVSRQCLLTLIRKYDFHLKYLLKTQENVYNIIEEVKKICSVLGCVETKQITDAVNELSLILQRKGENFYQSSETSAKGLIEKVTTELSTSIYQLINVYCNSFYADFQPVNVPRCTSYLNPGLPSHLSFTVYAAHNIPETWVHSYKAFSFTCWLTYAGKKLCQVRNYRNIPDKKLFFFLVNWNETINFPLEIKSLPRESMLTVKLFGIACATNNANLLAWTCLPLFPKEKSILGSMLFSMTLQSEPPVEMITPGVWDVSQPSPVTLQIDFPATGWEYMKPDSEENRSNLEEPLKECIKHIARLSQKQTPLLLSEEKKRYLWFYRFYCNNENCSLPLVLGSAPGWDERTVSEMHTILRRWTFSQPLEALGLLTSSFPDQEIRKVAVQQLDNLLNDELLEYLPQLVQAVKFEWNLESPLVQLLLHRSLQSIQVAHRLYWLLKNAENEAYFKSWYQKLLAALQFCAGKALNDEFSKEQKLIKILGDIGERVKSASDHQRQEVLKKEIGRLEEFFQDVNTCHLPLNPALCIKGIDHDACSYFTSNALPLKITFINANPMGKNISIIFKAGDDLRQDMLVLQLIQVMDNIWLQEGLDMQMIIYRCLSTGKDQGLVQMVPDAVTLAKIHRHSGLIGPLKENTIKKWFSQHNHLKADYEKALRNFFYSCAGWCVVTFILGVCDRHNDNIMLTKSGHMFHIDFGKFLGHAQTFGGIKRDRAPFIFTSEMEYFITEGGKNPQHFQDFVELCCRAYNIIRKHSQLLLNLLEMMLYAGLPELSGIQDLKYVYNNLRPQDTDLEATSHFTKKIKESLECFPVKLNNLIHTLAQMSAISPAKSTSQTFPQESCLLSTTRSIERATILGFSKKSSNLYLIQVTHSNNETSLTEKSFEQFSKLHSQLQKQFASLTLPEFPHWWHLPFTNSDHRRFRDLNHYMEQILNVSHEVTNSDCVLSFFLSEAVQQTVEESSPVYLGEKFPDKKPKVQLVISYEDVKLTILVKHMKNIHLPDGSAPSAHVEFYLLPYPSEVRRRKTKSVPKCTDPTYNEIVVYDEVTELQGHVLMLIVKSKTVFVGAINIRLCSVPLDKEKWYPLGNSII
Sequence of SBK1 (human) (Q52WX2 whole entry, looked up): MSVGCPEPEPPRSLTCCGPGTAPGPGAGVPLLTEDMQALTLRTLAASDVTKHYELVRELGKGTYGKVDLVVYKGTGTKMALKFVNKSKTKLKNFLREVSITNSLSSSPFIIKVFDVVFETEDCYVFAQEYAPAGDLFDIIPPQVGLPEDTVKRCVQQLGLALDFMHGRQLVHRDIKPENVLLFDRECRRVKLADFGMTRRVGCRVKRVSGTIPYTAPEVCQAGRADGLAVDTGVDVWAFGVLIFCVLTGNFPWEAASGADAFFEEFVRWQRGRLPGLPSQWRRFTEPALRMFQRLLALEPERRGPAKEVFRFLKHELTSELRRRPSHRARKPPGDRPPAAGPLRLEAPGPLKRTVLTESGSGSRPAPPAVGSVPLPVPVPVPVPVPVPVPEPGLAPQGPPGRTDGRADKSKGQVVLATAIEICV
Sequence of PKN1 (human) (Q16512 whole entry, looked up): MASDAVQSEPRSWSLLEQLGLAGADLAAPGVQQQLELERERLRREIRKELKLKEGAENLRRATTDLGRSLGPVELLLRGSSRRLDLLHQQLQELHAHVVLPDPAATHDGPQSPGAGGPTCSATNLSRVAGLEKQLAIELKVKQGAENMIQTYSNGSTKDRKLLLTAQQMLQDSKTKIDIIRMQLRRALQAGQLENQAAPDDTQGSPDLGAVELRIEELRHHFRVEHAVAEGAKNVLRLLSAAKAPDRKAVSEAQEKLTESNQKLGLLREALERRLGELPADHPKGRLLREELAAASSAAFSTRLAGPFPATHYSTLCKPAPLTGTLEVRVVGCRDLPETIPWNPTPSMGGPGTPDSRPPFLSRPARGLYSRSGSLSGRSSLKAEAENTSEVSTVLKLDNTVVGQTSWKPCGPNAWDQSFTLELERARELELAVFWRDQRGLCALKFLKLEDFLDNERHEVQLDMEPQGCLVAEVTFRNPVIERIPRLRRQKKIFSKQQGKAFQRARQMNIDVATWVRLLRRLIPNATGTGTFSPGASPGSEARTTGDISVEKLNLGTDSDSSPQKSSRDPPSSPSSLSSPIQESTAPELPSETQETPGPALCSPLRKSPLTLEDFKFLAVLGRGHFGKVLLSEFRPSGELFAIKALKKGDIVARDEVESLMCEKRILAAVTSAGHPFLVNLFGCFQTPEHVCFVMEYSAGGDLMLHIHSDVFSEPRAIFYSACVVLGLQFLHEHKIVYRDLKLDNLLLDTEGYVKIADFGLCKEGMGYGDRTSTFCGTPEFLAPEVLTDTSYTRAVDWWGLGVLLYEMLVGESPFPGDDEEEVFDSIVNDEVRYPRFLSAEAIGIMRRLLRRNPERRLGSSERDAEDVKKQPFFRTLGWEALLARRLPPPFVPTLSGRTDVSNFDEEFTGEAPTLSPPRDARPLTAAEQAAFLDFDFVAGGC

SMILES | kinase still bound, per cent of control (PKMYT1 (human)) [%] | kinase still bound, per cent of control (VRK2 (human)) [%] | kinase still bound, per cent of control (GAK (human)) [%] | kinase still bound, per cent of control (CDK8 (human)) [%] | kinase still bound, per cent of control (TEK (human)) [%] | kinase still bound, per cent of control (PIK3CB (human)) [%] | kinase still bound, per cent of control [1] [%] | kinase still bound, per cent of control (CAMK1D (human)) [%] | kinase still bound, per cent of control (CRK2 (P.falciparum)) [%] | kinase still bound, per cent of control (TAOK3 (human)) [%] | kinase still bound, per cent of control (PRPF4B (human)) [%] | kinase still bound, per cent of control (PAK4 (human)) [%] | kinase still bound, per cent of control (RPS6KA6 KD1 (human)) [%] | kinase still bound, per cent of control (GRK4 (human)) [%] | kinase still bound, per cent of control (EPHA7 (human)) [%] | kinase still bound, per cent of control (CDK13 (human)) [%] | kinase still bound, per cent of control (PIM3 (human)) [%] | kinase still bound, per cent of control (PIP5K1A (human)) [%] | kinase still bound, per cent of control (TGFBR1 (human)) [%] | kinase still bound, per cent of control (TYRO3 (human)) [%] | further results
N#Cc1cc(-c2ccnc(Nc3ccc(-n4cnc(-c5cccnc5)n4)cc3)n2)cc(N2CCOCC2)c1 | 65 | 100 | 22 | 80 | 67 | 100 | 0 | 87 | 100 | 28 | 57 | 31 | 60 | 37 | 85 | 100 | 78 | 17 | 73 | 87 | kinase still bound, per cent of control (TSSK1B (human)): 100%; kinase still bound, per cent of control (PRKCE (human)): 100%; kinase still bound, per cent of control (STK35 (human)): 48%; kinase still bound, per cent of control (FGFR1 (human)): 93%; kinase still bound, per cent of control (CDK18 (human)): 43%; kinase still bound, per cent of control (MELK (human)): 100%; kinase still bound, per cent of control (PIK3C2G (human)): 100%; kinase still bound, per cent of control (NTRK2 (human)): 100%; kinase still bound, per cent of control (CSNK1A1L (human)): 80%; kinase still bound, per cent of control (SBK1 (human)): 100%; kinase still bound, per cent of control (CAMK2A (human)): 16%; kinase still bound, per cent of control (DMPK (human)): 85%; kinase still bound, per cent of control (NTRK1 (human)): 53%; kinase still bound, per cent of control (MAP3K9 (human)): 22%; kinase still bound, per cent of control (PKN1 (human)): 48%; kinase still bound, per cent of control (STK38 (human)): 92%; kinase still bound, per cent of control (ACVRL1 (human)): 100%; kinase still bound, per cent of control (LIMK1 (human)): 62%; kinase still bound, per cent of control (MAP4K3 (human)): 6.3%; kinase still bound, per cent of control (RIPK1 (human)): 7.8%
CCN(CCO)CCCOc1ccc2c(Nc3cc(CC(=O)Nc4cccc(F)c4)[nH]n3)ncnc2c1 | 84 | 100 | 21 | 75 | 13 | 81 | 85 | 83 | 100 | 100 | 67 | 100 | 74 | 100 | 74 | 66 | 100 | 73 | 98 | 100 | kinase still bound, per cent of control (TSSK1B (human)): 87%; kinase still bound, per cent of control (PRKCE (human)): 100%; kinase still bound, per cent of control (STK35 (human)): 85%; kinase still bound, per cent of control (FGFR1 (human)): 85%; kinase still bound, per cent of control (CDK18 (human)): 62%; kinase still bound, per cent of control (MELK (human)): 47%; kinase still bound, per cent of control (PIK3C2G (human)): 21%; kinase still bound, per cent of control (NTRK2 (human)): 8.2%; kinase still bound, per cent of control (CSNK1A1L (human)): 99%; kinase still bound, per cent of control (SBK1 (human)): 100%; kinase still bound, per cent of control (CAMK2A (human)): 78%; kinase still bound, per cent of control (DMPK (human)): 93%; kinase still bound, per cent of control (NTRK1 (human)): 6.8%; kinase still bound, per cent of control (MAP3K9 (human)): 98%; kinase still bound, per cent of control (PKN1 (human)): 90%; kinase still bound, per cent of control (STK38 (human)): 56%; kinase still bound, per cent of control (ACVRL1 (human)): 97%; kinase still bound, per cent of control (LIMK1 (human)): 100%; kinase still bound, per cent of control (MAP4K3 (human)): 51%; kinase still bound, per cent of control (RIPK1 (human)): 100%
C=CC(=O)Nc1ccc(C(=O)c2sc(Nc3ccc(N4CCN(C)CC4)cc3OC)nc2N)cc1 | 96 | 96 | 0.8 | 100 | 89 | 86 | 100 | 0.55 | 92 | 23 | 100 | 95 | 50 | 52 | 95 | 100 | 87 | 34 | 96 | 100 | kinase still bound, per cent of control (TSSK1B (human)): 44%; kinase still bound, per cent of control (PRKCE (human)): 81%; kinase still bound, per cent of control (STK35 (human)): 94%; kinase still bound, per cent of control (FGFR1 (human)): 38%; kinase still bound, per cent of control (CDK18 (human)): 100%; kinase still bound, per cent of control (MELK (human)): 87%; kinase still bound, per cent of control (PIK3C2G (human)): 100%; kinase still bound, per cent of control (NTRK2 (human)): 100%; kinase still bound, per cent of control (CSNK1A1L (human)): 78%; kinase still bound, per cent of control (SBK1 (human)): 85%; kinase still bound, per cent of control (CAMK2A (human)): 1.2%; kinase still bound, per cent of control (DMPK (human)): 12%; kinase still bound, per cent of control (NTRK1 (human)): 78%; kinase still bound, per cent of control (MAP3K9 (human)): 93%; kinase still bound, per cent of control (PKN1 (human)): 97%; kinase still bound, per cent of control (STK38 (human)): 67%; kinase still bound, per cent of control (ACVRL1 (human)): 100%; kinase still bound, per cent of control (LIMK1 (human)): 79%; kinase still bound, per cent of control (MAP4K3 (human)): 60%; kinase still bound, per cent of control (RIPK1 (human)): 100%
